From ChEMBL document CHEMBL1795227, “Methanesulfonamido-cyclohexylamine derivatives of 2,4-diaminopyrimidine as potent ALK inhibitors” (Bioorg Med Chem Lett, 2011)
The source made the active and inactive calls. The calls are words filed in the database; no cut-off is given here.

Experiments:
[1] = test system: KARPAS-299; test: Antitumor activity against human KARPAS299 cells xenografted in mouse assessed as tumor growth inhibition at 55 mg/kg, po bid; assay type: functional; conditions: read-out: GI
[2] = molecular target: Tyrosine-protein kinase JAK2 (Homo sapiens) (UniProt O60674); test: Inhibition of JAK2 domain 2 at 1 uM
[3] = molecular target: Mitogen-activated protein kinase 10 (Homo sapiens) (UniProt P53779); test: Inhibition of JNK3 at 1 uM
[4] = Oral bioavailability in CD1 mouse at 10 mg/kg; assay type: ADME, organism-based; conditions: in vivo
[5] = Drug level in tumor of Karpas-299 cells xenografted mouse at 30 mg/kg, po administered as single dose measured after 2 hrs; assay type: ADME, organism-based, Neoplasm; design: dose 30 mg/kg, route oral; conditions: read-out: Drug uptake
[6] = Cmax in Sprague-Dawley rat at 5 mg/kg, po; assay type: ADME, organism-based; design: dose 5 mg/kg, route oral; conditions: in vivo
[7] = Half life in CD1 mouse at 10 mg/kg, po; assay type: ADME, organism-based; design: dose 10 mg/kg, route oral; conditions: in vivo
[8] = molecular target: Fibroblast growth factor receptor 3 (Homo sapiens) (UniProt P22607); conditions: 1 uM
Description: Inhibition of FGFR3 at 1 uM

[9] = Plasma concentration in Karpas-299 cells xenografted mouse at 30 mg/kg, po administered as single dose measured after 6 hrs; assay type: ADME, organism-based; design: dose 30 mg/kg, route oral
[10] = AUC (0 to t) in CD1 mouse at 10 mg/kg, po; assay type: ADME, organism-based; design: dose 10 mg/kg, route oral; conditions: plasma
[11] = molecular target: Mitogen-activated protein kinase 12 (Homo sapiens) (UniProt P53778); test: Inhibition of p38 gamma at 1 uM
[12] = test system: Mast/stem cell growth factor receptor Kit (Homo sapiens), P10721 [V559D,T670I]; test: Inhibition of KIT V559D T670I at 1 uM
Mast/stem cell growth factor receptor Kit (Homo sapiens), P10721 [V559D,T670I], sequence (P10721 whole entry V559D/T670I): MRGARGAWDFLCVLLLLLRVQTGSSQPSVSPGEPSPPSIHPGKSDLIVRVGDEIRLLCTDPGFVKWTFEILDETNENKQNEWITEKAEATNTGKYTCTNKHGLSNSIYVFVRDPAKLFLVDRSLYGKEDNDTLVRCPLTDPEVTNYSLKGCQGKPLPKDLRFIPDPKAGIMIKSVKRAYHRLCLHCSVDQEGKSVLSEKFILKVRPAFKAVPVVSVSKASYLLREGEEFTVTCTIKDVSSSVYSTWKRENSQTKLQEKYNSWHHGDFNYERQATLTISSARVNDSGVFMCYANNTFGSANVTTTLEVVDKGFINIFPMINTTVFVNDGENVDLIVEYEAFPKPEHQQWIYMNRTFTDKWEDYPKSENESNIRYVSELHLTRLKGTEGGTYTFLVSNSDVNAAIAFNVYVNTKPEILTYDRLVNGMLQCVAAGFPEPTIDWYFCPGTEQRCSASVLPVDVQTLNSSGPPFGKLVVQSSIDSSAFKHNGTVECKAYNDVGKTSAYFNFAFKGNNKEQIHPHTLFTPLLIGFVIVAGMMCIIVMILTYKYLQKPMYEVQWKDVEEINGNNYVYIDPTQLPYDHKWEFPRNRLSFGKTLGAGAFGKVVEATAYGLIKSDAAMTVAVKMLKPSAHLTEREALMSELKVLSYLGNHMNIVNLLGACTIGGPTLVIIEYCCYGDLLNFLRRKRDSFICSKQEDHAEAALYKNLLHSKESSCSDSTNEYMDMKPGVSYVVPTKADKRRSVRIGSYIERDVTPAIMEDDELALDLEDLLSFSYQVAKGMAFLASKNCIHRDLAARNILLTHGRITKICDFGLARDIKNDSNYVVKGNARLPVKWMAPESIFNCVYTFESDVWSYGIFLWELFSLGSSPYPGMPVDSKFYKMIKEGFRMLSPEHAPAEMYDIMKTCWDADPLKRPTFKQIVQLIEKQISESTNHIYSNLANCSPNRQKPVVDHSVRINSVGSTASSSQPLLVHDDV

[13] = molecular target: Tyrosine-protein kinase Lck (Homo sapiens) (UniProt P06239); test: Inhibition of LCK at 1 uM
[14] = Clearance in Sprague-Dawley rat at 1 mg/kg, iv; assay type: ADME, organism-based; design: dose 1 mg/kg, route intravenous; conditions: in vivo
[15] = Half life in CD1 mouse at 1 mg/kg, iv; assay type: ADME, organism-based; design: dose 1 mg/kg, route intravenous; conditions: in vivo
[16] = Plasma concentration in Karpas-299 cells xenografted mouse at 30 mg/kg, po administered as single dose measured after 12 hrs; assay type: ADME, organism-based; design: dose 30 mg/kg, route oral
[17] = Tmax in Sprague-Dawley rat at 5 mg/kg, po; assay type: ADME, organism-based; design: dose 5 mg/kg, route oral; conditions: in vivo
[18] = molecular target: Hepatocyte growth factor receptor (Homo sapiens) (UniProt P08581); test: Inhibition of MET at 1 uM
Hepatocyte growth factor receptor (Homo sapiens), sequence (P08581 whole entry, the tested form may be a part): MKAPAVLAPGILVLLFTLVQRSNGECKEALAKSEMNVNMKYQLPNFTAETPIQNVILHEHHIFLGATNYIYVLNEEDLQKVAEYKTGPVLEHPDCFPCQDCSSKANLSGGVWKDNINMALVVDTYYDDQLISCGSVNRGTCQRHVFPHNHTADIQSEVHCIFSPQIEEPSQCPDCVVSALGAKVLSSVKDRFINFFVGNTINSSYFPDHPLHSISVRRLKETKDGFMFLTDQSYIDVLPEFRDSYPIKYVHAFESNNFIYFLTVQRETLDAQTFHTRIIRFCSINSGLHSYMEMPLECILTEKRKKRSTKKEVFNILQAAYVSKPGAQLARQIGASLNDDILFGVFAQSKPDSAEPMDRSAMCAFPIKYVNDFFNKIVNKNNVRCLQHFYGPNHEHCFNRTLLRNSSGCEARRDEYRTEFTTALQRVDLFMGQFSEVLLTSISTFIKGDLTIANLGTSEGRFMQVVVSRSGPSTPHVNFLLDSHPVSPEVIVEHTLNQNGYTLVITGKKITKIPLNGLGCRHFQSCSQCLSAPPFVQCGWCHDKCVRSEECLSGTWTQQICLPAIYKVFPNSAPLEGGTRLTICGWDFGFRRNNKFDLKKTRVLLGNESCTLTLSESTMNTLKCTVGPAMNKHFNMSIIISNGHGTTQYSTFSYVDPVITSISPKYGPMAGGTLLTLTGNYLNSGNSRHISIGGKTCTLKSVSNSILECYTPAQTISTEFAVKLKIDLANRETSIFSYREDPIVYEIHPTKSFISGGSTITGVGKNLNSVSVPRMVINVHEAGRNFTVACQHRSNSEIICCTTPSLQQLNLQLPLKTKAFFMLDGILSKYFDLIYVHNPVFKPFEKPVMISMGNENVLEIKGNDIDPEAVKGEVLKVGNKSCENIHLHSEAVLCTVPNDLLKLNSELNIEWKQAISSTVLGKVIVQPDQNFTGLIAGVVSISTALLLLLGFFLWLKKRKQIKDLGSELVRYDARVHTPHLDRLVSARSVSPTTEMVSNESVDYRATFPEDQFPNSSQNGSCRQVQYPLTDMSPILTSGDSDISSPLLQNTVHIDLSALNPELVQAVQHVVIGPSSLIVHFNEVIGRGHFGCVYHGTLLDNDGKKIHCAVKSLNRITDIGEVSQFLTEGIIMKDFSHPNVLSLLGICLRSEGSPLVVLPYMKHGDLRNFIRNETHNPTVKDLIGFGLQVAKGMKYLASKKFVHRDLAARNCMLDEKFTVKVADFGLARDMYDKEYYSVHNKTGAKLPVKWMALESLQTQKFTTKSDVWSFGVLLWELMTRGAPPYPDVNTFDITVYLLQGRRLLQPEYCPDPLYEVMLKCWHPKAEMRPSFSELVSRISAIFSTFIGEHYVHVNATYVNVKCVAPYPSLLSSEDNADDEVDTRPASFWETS

[19] = molecular target: Non-receptor tyrosine-protein kinase TYK2 (Homo sapiens) (UniProt P29597); test: Inhibition of TYK2 domain 2 at 1 uM
Non-receptor tyrosine-protein kinase TYK2 (Homo sapiens), sequence (P29597 whole entry, the tested form may be a part): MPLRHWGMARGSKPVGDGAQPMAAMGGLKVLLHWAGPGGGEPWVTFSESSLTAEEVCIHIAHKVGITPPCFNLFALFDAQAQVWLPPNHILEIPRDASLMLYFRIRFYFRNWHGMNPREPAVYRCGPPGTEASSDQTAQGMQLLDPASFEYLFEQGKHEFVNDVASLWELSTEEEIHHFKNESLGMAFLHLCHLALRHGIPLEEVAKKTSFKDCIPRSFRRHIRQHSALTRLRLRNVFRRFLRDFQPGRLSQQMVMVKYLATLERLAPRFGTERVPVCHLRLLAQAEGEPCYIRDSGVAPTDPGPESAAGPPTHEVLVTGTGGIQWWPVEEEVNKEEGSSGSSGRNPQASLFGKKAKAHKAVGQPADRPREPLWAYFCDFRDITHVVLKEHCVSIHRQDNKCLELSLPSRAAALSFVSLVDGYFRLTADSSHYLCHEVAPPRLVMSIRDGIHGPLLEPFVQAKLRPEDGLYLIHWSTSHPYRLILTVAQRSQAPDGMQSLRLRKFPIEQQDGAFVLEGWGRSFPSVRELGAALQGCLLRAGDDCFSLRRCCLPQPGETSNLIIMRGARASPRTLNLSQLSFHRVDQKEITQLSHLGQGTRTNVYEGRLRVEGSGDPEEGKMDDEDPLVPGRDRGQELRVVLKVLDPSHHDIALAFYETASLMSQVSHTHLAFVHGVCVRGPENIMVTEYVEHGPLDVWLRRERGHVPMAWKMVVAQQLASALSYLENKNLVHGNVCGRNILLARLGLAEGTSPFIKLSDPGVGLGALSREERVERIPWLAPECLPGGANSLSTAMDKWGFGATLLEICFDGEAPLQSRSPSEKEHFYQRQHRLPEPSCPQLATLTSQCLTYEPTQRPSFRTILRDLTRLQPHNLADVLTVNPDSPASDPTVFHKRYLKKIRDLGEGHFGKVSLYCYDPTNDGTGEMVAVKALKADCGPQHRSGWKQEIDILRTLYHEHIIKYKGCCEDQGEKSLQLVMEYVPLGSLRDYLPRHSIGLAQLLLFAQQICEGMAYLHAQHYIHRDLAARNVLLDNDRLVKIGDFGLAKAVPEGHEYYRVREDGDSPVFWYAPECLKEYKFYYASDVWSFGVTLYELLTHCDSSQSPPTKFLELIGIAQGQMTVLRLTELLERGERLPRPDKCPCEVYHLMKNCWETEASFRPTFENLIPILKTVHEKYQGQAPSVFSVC

[20] = Drug level in tumor of Karpas-299 cells xenografted mouse at 30 mg/kg, po administered as single dose measured after 6 hrs; assay type: ADME, organism-based, Neoplasm; design: dose 30 mg/kg, route oral; conditions: read-out: Drug uptake
[21] = test system: Serine/threonine-protein kinase B-raf (Homo sapiens), P15056 [V600E]; test: Inhibition of BRAF V600E at 1 uM
[22] = Oral bioavailability in Sprague-Dawley rat at 5 mg/kg; assay type: ADME, organism-based; conditions: in vivo
[23] = molecular target: Tyrosine-protein kinase receptor UFO (Homo sapiens) (UniProt P30530); test: Inhibition of AXL at 1 uM
Tyrosine-protein kinase receptor UFO (Homo sapiens), sequence (P30530 whole entry): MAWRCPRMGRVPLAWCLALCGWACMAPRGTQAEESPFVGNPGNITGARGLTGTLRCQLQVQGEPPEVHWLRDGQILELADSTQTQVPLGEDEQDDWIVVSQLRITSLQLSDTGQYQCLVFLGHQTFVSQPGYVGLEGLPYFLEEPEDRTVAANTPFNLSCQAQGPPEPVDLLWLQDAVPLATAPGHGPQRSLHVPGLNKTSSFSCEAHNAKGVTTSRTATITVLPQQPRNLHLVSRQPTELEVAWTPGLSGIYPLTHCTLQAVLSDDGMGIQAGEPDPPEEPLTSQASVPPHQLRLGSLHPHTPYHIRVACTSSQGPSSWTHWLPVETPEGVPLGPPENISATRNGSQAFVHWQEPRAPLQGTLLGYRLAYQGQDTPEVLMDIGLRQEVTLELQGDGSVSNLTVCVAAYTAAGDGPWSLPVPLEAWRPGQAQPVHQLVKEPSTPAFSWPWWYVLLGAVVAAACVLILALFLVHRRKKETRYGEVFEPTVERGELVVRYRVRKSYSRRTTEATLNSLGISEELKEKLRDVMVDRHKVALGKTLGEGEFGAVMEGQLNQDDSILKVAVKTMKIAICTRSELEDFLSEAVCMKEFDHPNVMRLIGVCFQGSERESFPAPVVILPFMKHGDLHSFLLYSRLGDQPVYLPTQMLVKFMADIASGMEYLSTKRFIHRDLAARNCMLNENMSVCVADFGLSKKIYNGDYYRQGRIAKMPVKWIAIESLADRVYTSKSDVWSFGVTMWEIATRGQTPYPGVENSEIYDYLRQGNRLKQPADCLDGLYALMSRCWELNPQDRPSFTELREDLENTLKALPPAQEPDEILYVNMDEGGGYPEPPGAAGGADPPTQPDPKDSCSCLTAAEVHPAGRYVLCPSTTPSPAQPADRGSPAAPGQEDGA

[24] = test system: Mus musculus; test: Inhibition of NPM-ALK autophosphorylation in Karpas-299 cells xenografted mouse at 30 mg/kg, po administered as single dose measured after 2 hrs; assay type: functional; conditions: KARPAS-299, 2 h
[25] = molecular target: Mast/stem cell growth factor receptor Kit (Homo sapiens) (UniProt P10721); test: Inhibition of KIT at 1 uM
Mast/stem cell growth factor receptor Kit (Homo sapiens), sequence (P10721 whole entry): as the sequence (P10721 whole entry V559D/T670I) above, with D559V, I670T counted along it

[26] = AUC (0 to t) in Sprague-Dawley rat at 5 mg/kg, po; assay type: ADME, organism-based; design: dose 5 mg/kg, route oral; conditions: plasma
[27] = test system: Mus musculus; test: Toxicity in mouse assessed as overt signs at 30 mg/kg, po bid; assay type: organism-based; design: dose 30 mg/kg, route oral; conditions: in vivo
[28] = test system: Mus musculus; test: Toxicity in mouse assessed as body weight loss at 55 mg/kg, po bid; assay type: organism-based; design: dose 55 mg/kg, route oral; conditions: in vivo
[29] = Half life in Sprague-Dawley rat at 1 mg/kg, iv; assay type: ADME, organism-based; design: dose 1 mg/kg, route intravenous; conditions: in vivo
[30] = molecular target: Mitogen-activated protein kinase 1 (Homo sapiens) (UniProt P28482); test: Inhibition of ERK2 at 1 uM
Mitogen-activated protein kinase 1 (Homo sapiens), sequence (P28482 whole entry): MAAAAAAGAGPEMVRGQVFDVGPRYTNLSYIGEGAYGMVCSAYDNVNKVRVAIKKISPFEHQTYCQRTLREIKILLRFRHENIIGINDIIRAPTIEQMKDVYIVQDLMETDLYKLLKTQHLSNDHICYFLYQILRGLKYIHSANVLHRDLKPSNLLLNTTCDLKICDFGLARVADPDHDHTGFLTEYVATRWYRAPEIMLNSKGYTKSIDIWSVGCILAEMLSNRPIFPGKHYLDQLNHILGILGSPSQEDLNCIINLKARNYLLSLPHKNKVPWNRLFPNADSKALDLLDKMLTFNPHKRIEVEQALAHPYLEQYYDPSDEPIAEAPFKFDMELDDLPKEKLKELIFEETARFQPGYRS

[31] = test system: Mus musculus; test: Toxicity in mouse assessed as overt signs at 55 mg/kg, po bid; assay type: organism-based; design: dose 55 mg/kg, route oral; conditions: in vivo
[32] = Clearance in CD1 mouse at 1 mg/kg, iv; assay type: ADME, organism-based; design: dose 1 mg/kg, route intravenous; conditions: in vivo
[33] = Volume of distribution in CD1 mouse at 1 mg/kg, iv; assay type: ADME, organism-based; design: dose 1 mg/kg, route intravenous; conditions: in vivo
[34] = AUC (0 to t) in Sprague-Dawley rat at 1 mg/kg, iv; assay type: ADME, organism-based; design: dose 1 mg/kg, route intravenous; conditions: plasma
[35] = Cmax in CD1 mouse at 10 mg/kg, po; assay type: ADME, organism-based; design: dose 10 mg/kg, route oral; conditions: in vivo
[36] = molecular target: ALK tyrosine kinase receptor (Homo sapiens, UniProt Q9UM73); test: Inhibition of autophosphorylation of NPM-ALK in human Karpas-299 cells; assay type: cell-based
[37] = Drug level in tumor of Karpas-299 cells xenografted mouse at 30 mg/kg, po administered as single dose measured after 12 hrs; assay type: ADME, organism-based, Neoplasm; design: dose 30 mg/kg, route oral; conditions: read-out: Drug uptake
[38] = molecular target: Serine/threonine-protein kinase PAK 1 (Homo sapiens) (UniProt Q13153); test: Inhibition of PAK1 at 1 uM
[39] = Tmax in CD1 mouse at 10 mg/kg, po; assay type: ADME, organism-based; design: dose 10 mg/kg, route oral; conditions: in vivo
[40] = AUC (0 to t) in CD1 mouse at 1 mg/kg, iv; assay type: ADME, organism-based; design: dose 1 mg/kg, route intravenous; conditions: plasma
[41] = Plasma concentration in Karpas-299 cells xenografted mouse at 30 mg/kg, po administered as single dose measured after 2 hrs; assay type: ADME, organism-based; design: dose 30 mg/kg, route oral
[42] = molecular target: 3-phosphoinositide-dependent protein kinase 1 (Homo sapiens) (UniProt O15530); test: Inhibition of PDPK1 at 1 uM
[43] = test system: Mus musculus; test: Inhibition of NPM-ALK autophosphorylation in Karpas-299 cells xenografted mouse at 30 mg/kg, po administered as single dose measured after 6 hrs; assay type: functional, organism-based; design: dose 30 mg/kg
[44] = test system: KARPAS-299; test: Antitumor activity against human KARPAS299 cells xenografted in mouse assessed as tumor growth inhibition at 30 mg/kg, po bid; assay type: functional; conditions: read-out: GI
[45] = test system: Mus musculus; test: Toxicity in mouse assessed as body weight loss at 30 mg/kg, po bid; assay type: organism-based; design: dose 30 mg/kg, route oral; conditions: in vivo
[46] = molecular target: Insulin-like growth factor 1 receptor (Homo sapiens) (UniProt P08069); test: Inhibition of IGF1R at 1 uM
[47] = Volume of distribution in Sprague-Dawley rat at 1 mg/kg, iv; assay type: ADME, organism-based; design: dose 1 mg/kg, route intravenous; conditions: in vivo

COCCN1CCc2cc(Nc3ncc(Cl)c(N[C@@H]4CCCC[C@H]4NS(C)(=O)=O)n3)c(OC)cc2CC1
inhibition in vivo at 55 mg/kg [1]: 54% | inhibition [2]: < 65% | inhibition [3]: < 65% | bioavailability [4]: 28% | concentration at 2 h [5]: 695 ng/g | Cmax [6]: 23 ng/mL | half-life [7]: 1 h | inhibition [8]: < 65% | concentration at 6 h [9]: 3680 ng/mL | AUC(0-t) [10]: 8200 ng·h/mL | inhibition [11]: < 65% | inhibition [12]: < 65% | inhibition [13]: < 65% | clearance [14]: 217 mL/min/kg | half-life [15]: 0.9 h | concentration at 12 h [16]: 2650 ng/mL | Tmax [17]: 1.8 h | inhibition [18]: < 65% | inhibition [19]: < 65% | concentration at 6 h [20]: 602 ng/g | inhibition [21]: < 65% | bioavailability [22]: 24% | inhibition [23]: < 65% | inhibition in vivo at 30 mg/kg [24]: 75% | inhibition [25]: < 65% | AUC(0-t) [26]: 110 ng·h/mL | Activity [27]: Non-toxic | Activity [28]: Non-toxic | half-life [29]: 0.6 h | inhibition [30]: < 65% | Activity [31]: Non-toxic | clearance [32]: 5.6 mL/min/kg | Vd [33]: 0.4 L/kg | AUC(0-t) [34]: 72 ng·h/mL | Cmax [35]: 2880 ng/mL | IC50 [36]: 65 nM | concentration at 12 h [37]: 279 ng/g | inhibition [38]: < 65% | Tmax [39]: 1 h | AUC(0-t) [40]: 2930 ng·h/mL | concentration at 2 h [41]: 2740 ng/mL | inhibition [42]: < 65% | inhibition [43]: inactive | inhibition in vivo at 30 mg/kg [44]: 45% | Activity [45]: Non-toxic | inhibition [46]: < 65% | Vd [47]: 10.1 L/kg

COCCN1CCc2cc(Nc3ncc(Cl)c(N[C@@H]4CCCC[C@H]4N(C)S(C)(=O)=O)n3)c(OC)cc2CC1
inhibition [2]: < 65% | inhibition [3]: 98% | inhibition [8]: 100% | inhibition [11]: < 65% | inhibition [12]: 92% | inhibition [13]: < 65% | inhibition [18]: < 65% | inhibition [19]: < 65% | inhibition [21]: < 65% | inhibition [23]: < 65% | inhibition [25]: 96% | inhibition [30]: < 65% | IC50 [36]: 15 nM | inhibition [38]: < 65% | inhibition [42]: < 65% | inhibition [46]: 73%
